From PMC7327383, “The affinity and selectivity of α‐adrenoceptor antagonists, antidepressants, and antipsychotics for the human α1A, α1B, and α1D‐adrenoceptors” (Pharmacology Research & Perspectives, 2020)
Where two headings read alike, the source gives them in different places.

Legend:
human α1A-adrenoceptor = target: T1, human α1A-adrenoceptor (Homo sapiens, UniProt P35348); test: [3H]prazosin whole-cell competition binding, CHO-α1A cells; conditions: for Selectivity ratio α1A vs α1D / Selectivity ratio α1A vs α1B: ratio of KD values, 1.0 under vs = none; for Selectivity ratio α1A vs α1D: higher α1A affinity; for Selectivity ratio α1A vs α1B: printed under α1A = higher α1A affinity; for Kd: read-out: Log KD α1A (converted)
T1 construct: CHO cells stably expressing either the full‐length human α1A, α1B, or α1D‐adrenoceptor
T1 sequence (P35348 1-466): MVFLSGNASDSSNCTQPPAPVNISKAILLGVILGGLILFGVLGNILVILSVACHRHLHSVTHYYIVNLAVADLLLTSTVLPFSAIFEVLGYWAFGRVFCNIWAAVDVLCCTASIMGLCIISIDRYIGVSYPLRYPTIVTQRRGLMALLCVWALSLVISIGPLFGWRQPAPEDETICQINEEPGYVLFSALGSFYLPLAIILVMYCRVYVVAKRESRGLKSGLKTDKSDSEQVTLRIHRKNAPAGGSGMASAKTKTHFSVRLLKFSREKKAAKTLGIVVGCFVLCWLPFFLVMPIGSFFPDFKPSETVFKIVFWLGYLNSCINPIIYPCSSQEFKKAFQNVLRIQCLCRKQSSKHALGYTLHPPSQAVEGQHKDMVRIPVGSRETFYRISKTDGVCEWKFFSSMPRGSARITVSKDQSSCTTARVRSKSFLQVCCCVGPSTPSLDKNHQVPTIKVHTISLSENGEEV

human α1B-adrenoceptor = target: T2, human α1B-adrenoceptor (Homo sapiens, UniProt P35368); test: [3H]prazosin whole-cell competition binding, CHO-α1B cells; conditions: for selectivity α1B vs α1D: ratio, 1 = no selectivity for a subtype over another; for Selectivity ratio α1B vs α1D: ratio of KD values, higher α1B affinity, 1.0 under vs = none
T2 construct: CHO cells stably expressing either the full‐length human α1A, α1B, or α1D‐adrenoceptor
T2 sequence (P35368 1-520): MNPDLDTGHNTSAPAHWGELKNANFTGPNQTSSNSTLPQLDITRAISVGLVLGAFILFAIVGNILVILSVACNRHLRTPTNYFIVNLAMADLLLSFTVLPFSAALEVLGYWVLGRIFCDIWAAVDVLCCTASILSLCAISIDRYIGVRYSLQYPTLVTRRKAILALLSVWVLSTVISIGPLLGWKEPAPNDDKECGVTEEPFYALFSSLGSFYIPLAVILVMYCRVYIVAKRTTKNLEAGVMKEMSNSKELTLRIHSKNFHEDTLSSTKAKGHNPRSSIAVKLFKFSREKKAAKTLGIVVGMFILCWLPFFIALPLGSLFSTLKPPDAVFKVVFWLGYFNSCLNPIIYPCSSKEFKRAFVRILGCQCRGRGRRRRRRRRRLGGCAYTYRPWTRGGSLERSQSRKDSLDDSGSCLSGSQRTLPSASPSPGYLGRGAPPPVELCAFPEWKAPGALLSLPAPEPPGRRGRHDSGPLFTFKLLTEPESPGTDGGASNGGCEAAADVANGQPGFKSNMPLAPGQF

[1] = target: T3, full-length human α1D-adrenoceptor (Homo sapiens, UniProt P25100); test: [3H]prazosin whole-cell competition binding, CHO-α1D cells; conditions: for Log KD α1D site 2: low-affinity component of two-component curve; for Selectivity ratio α1B vs α1D / Selectivity ratio α1A vs α1D: ratio of KD values, higher α1D affinity (site 1 KD)
T3 sequence (P25100 1-572): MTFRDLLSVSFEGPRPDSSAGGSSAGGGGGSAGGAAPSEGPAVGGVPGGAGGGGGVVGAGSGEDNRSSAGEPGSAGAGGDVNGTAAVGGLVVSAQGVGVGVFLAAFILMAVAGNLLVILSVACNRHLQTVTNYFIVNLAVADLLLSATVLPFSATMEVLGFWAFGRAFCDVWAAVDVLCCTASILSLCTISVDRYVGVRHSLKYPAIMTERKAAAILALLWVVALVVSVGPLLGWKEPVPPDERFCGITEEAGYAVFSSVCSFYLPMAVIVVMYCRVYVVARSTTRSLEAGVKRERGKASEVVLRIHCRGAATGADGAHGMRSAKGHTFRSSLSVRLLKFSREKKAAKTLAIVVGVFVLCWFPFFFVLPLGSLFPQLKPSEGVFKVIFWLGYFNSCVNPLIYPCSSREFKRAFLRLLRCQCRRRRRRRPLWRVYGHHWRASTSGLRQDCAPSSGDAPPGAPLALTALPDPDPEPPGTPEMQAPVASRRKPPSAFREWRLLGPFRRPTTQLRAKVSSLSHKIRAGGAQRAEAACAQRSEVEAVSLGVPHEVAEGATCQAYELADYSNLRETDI

[2] = single-component inhibition curve, given as log KD (negative), mean ± SE mean
[3] = single-component inhibition curve, given as log KD (negative), mean ± SE mean, read-out: Log KD α1B (converted)
[4] = Log KD α1D site 1, high-affinity component of two-component curve, control, used for selectivity
[5] = percentage of inhibition through first component, control
[6] = two-component inhibition curve, proportion of site 1
[7] = Log KD α1D, single-component inhibition curve, given as log KD (negative), mean ± SE mean
[8] = ratio, 1 = no selectivity for a subtype over another

| SMILES | Selectivity ratio α1A vs α1D (human α1A-adrenoceptor) [fold] | Selectivity ratio α1A vs α1B (human α1A-adrenoceptor) [fold] | Kd (human α1A-adrenoceptor; [2]) [nM] | selectivity α1B vs α1D (human α1B-adrenoceptor) | Kd (human α1B-adrenoceptor; [3]) [nM] | % site 1 α1D [1, 5] | Selectivity ratio α1B vs α1D [1] [fold] | Log KD α1A (human α1A-adrenoceptor; [2]) | Log KD α1B (human α1B-adrenoceptor; [2]) | Kd [1, 7] [nM] | also measured |
| --- | --- | --- | --- | --- | --- | --- | --- | --- | --- | --- | --- |
| CC(C(O)c1ccc(O)cc1)N1CCC(Cc2ccccc2)CC1 (centres unmarked) [Ifenprodil] | 2.9 | 15 | 21.9 | 43 | 324 | 48.8 ± 4.5% site 1 | 43 | – | – | – | Kd [1, 4]: 7.59 nM; Log KD α1D site 2 ([1]; control): −6.05 ± 0.13; % site 1 α1D [1, 6]: -8.12 ± 0.18 -6.05 ± 0.13 48.8 ± 4.5% site 1 |
| COc1cccc(OC)c1OCCNCC1CSc2ccccc2O1 (centres unmarked) [Benoxathian] | – | – | – | – | – | 62.5 ± 3.4% Site 1 | – | −9.08 ± 0.05 | −7.32 ± 0.03 | – | Log KD α1D site 1 ([1]; high-affinity component of two-component curve, control, used for selectivity): −7.91 ± 0.10; Log KD α1D site 2 ([1]; control): −5.62 ± 0.19; % site 1 α1D [1, 6]: -7.91 ± 0.10 -5.62 ± 0.19 62.5 ± 3.4% site 1 |
| O=C1Nc2ccccc2C2=NC(CN3CCN(c4ccccc4)CC3)CN12 (centres unmarked) [2‐PMDQ] | – | – | – | – | – | 57.6 ± 2.8% site 1 | – | −8.19 ± 0.09 | −6.95 ± 0.05 | – | – |
| Cc1ccc(Sc2ccccc2N2CCNCC2)c(C)c1 [Vortioxetine] | 7.8 | 7.9 | 479 | – | 3800 | – | – | – | – | 3720 | Selectivity ratio α1B vs α1D (human α1B-adrenoceptor): 1.0 fold |
| O=C1Cc2cc(CCN3CCN(c4nsc5ccccc45)CC3)c(Cl)cc2N1 [Ziprasidone] | 34 | 11 | 1.86 | – | 20 | – | – | – | – | 63.1 | Selectivity ratio α1B vs α1D (human α1B-adrenoceptor): 3.2 fold |
| COc1cc2nc(N3CCN(C(=O)c4ccco4)[C@H]4CCCC[C@H]43)nc(N)c2cc1OC (racemic) [Cyclazosin] | – | 1.6 | 1.29 | 15 | 2.09 | 56.8 ± 3.4% site 1 | 15 | – | – | – | selectivity α1A vs 1D (human α1A-adrenoceptor; [8]): 9.5; Kd [1, 4]: 0.135 nM; Kd ([1]; affinity, subtype not given, by Table 1 reached at α1D site 1): < 0.25 nM; Log KD α1D site 2 ([1]; control): −7.44 ± 0.10; Selectivity ratio α1A vs α1D [1]: 9.5 fold; % site 1 α1D [1, 6]: -9.87 ± 0.06 -7.44 ± 0.10 56.8 ± 3.4% site 1 |
| Cn1cc(C(F)(F)F)nc1-c1ccc(OCC(O)CNCCOc2ccc(O)c(C(N)=O)c2)cc1 (centres unmarked) [CGP 20712A] | – | – | – | >9.1 | – | – | – | – | – | – | Kd (human α1A-adrenoceptor; log KD from 3H-prazosin whole cell binding, CHO cells, mean ± s.e.mean): 11700 nM; selectivity α1A vs 1D (human α1A-adrenoceptor; [8]): 1.1; selectivity α1A vs α1B (human α1A-adrenoceptor; [8]): >8.5; Log IC50 α1B (human α1B-adrenoceptor; log IC50 bound): Log IC50>-4; Kd ([1]; Log KD α1D (apparent), apparent KD: maximum concentration inhibited most but not all specific binding, IC50 from extrapolated curve): 11000 nM |
| COc1ccc(C(CN(C)C)C2(O)CCCCC2)cc1 (centres unmarked) [Venlafaxime] | – | >4.9 | – | >24 | – | – | >24 | – | – | – | Log KD α1A (apparent) (human α1A-adrenoceptor; app: top concentration inhibited most but not all specific binding, curve extrapolated): −3.69 ± 0.02^app; selectivity α1A vs 1D (human α1A-adrenoceptor; [8]): 4.9; Log KD α1B: result in words (human α1B-adrenoceptor; no inhibition of [3H]prazosin binding at maximum concentration possible): No binding to 1 mmol/L; binding at α1B (human α1B-adrenoceptor; result in words in the Log KD α1B column): No binding to 1mM; binding at α1B (result in words) (human α1B-adrenoceptor; up to the maximum concentration): No binding to 1mM; Selectivity ratio α1A vs α1D [1]: 4.9 fold; Log KD α1D [1, 2]: −4.38 ± 0.16 |
| COc1ccccc1N1CCN(CC(O)COc2cccc3ccccc23)CC1 (centres unmarked) [Naftopidil] | 8.1 | 14 | 10.7 | 1.7 | 151 | – | 1.7 | – | – | 87.1 | – |

More lines, main results first:

| Selectivity ratio α1A vs α1D (human α1A-adrenoceptor) [fold] | Selectivity ratio α1A vs α1B (human α1A-adrenoceptor) [fold] | Kd (human α1A-adrenoceptor; [2]) [nM] | selectivity α1B vs α1D (human α1B-adrenoceptor) | Kd (human α1B-adrenoceptor; [3]) [nM] | % site 1 α1D [1, 5] | Selectivity ratio α1B vs α1D [1] [fold] | Log KD α1A (human α1A-adrenoceptor; [2]) | Log KD α1B (human α1B-adrenoceptor; [2]) | Kd [1, 7] [nM] | SMILES | also measured |
| --- | --- | --- | --- | --- | --- | --- | --- | --- | --- | --- | --- |
| 1.9 | 11 | 5890 | 5.8 | – | – | 5.8 | – | – | 11000 | Cc1ccc(OCC(O)C(C)NC(C)C)c2c1CCC2 (centres unmarked) [ICI118551] | Kd (human α1B-adrenoceptor; app: top concentration inhibited most but not all specific binding, curve extrapolated, read-out: Log KD α1B (apparent) (converted)): 63100 nM |
| 7.2 | 17 | – | 2.4 | – | – | 2.4 | −5.92 ± 0.09 | −4.68 ± 0.07 | – | CC1c2ccccc2CN1CC1=NCCN1 (centres unmarked) [BRL44408] | Log KD α1D [1, 2]: −5.06 ± 0.05 |
| – | – | – | – | – | 60.5 ± 1.4% site 1 | – | −9.35 ± 0.08 | −8.15 ± 0.07 | – | COc1ccccc1N1CCN(CCN2C(=O)c3ccccc3C(C)(C)C2=O)CC1 [ARC239] | – |
